The values that follow come from patent publication US11110092B2, “Methods of treating hematologic cancers” (BIOCRYST PHARMACEUTICALS, INC, priority 2007, dated 2021).

Series [1] concerns primary leukemic cells from patients with CLL. On the set-up: cell death: dose or concentration left out as unconfirmed.
Method: The present in vitro study was carried out in primary leukemic lymphocytes from 43 patients diagnosed with CLL according to the World Health Organization classification. Informed consent was obtained from each patient.
Peripheral blood mononuclear cells (PBMCs) cells were isolated by Ficoll/Hypaque sedimentation (Seromed, Berlin, Germany). Cells were either used directly or cryopreserved in liquid nitrogen in the presence of 10% dimethyl sulfoxide and 90% heat-inactivated fetal bovine serum (FBS, Gibco Paisley, Scotland, UK).
Cells were incubated for different time points with forodesine at doses ranging from 1 to 12 μM in the presence or absence of 10-20-30 μM of deoxyguanosine (dGuo). When indicated, cells were pre-incubated for 1 hour with the pan-caspase inhibitor z-VAD.fmk (benzyloxy-carbonyl-Val-Ala-Asp-fluoro-methylketone; Bachem, Bubendorf, Switzerland) at 80 the caspase-8 inhibitor z-IETD.fmk at 50 μM (Z-Ile-Glu(OMe)Thr-DL-Asp (OMe)-fluoromethylketone, Bachem), 2′-deoxycytidine (5-10-20 μM, Sigma), N-acetyl-L-cysteine (NAC, 25 mM), Tiron (5 mM, 4,5-Dihydroxy-1,3-Benzene-disulfonic acid, Sigma) or GSH (2 mM; Sigma). […] Cell viability and apoptosis induction was analyzed by changes in cell complexity by means of FSC/SSC, quantification of phosphatidyl serine (PS) exposure by double staining with Annexin-V conjugated to fluorescein isothiocyanate (FITC) and propidium iodide (PI) (BenderMedsystems, Vienna, Austria). For the analysis of apoptosis in the CD3^+ and CD19^− populations, PBMCs were labeled simultaneously with anti-CD3-FITC (Immunotech, Marseille, France), anti-CD19-PE (Becton Dickinson) and Annexin-V-APC. Cell viability and cytotoxicity were plotted as percentage with respect to control cells. Loss of mitochondrial transmembrane potential (ΔΨm) were evaluated by staining cells with 20 nM of DiOC6 (3,3-diexyloxacarbocyanine iodide, Molecular Probes) and reactive oxygen species (ROS) production was determined by staining cells with 2 μM dihydroethidine (DHE; Molecular Probes) and flow cytometry analysis. […] In brief, cells were washed once in PBS and fixed in paraformaldehyde 4%, permeabilized with 0.1% saponin and 0.5% bovine serum albumin (BSA). […] After several washes in permeabilization buffer, cells were incubated with a secondary goat anti-mouse FITC (DAKO) or goat anti-rabbit FITC (Supertechs) antibody and washed again with permeabilization buffer. Ten thousand stained cells per sample were then analyzed by flow cytometry.
In series [2] the test system is mitochondrial transmembrane potential in CLL cells. Put plainly: Loss of mitochondrial transmembrane potential (DiOC6 staining, flow cytometry). Conditions: for effect of pre-incubation on Δψm loss induced by forodesine: ROS scavenger pre-incubation. Format: cell-based, human.
Method: (§1) Cells were incubated for different time points with forodesine at doses ranging from 1 to 12 μM in the presence or absence of 10-20-30 μM of deoxyguanosine (dGuo). When indicated, cells were pre-incubated for 1 hour with the pan-caspase inhibitor z-VAD.fmk (benzyloxy-carbonyl-Val-Ala-Asp-fluoro-methylketone; Bachem, Bubendorf, Switzerland) at 80 the caspase-8 inhibitor z-IETD.fmk at 50 μM (Z-Ile-Glu(OMe)Thr-DL-Asp (OMe)-fluoromethylketone, Bachem), 2′-deoxycytidine (5-10-20 μM, Sigma), N-acetyl-L-cysteine (NAC, 25 mM), Tiron (5 mM, 4,5-Dihydroxy-1,3-Benzene-disulfonic acid, Sigma) or GSH (2 mM; Sigma). […] Loss of mitochondrial transmembrane potential (ΔΨm) were evaluated by staining cells with 20 nM of DiOC6 (3,3-diexyloxacarbocyanine iodide, Molecular Probes) and reactive oxygen species (ROS) production was determined by staining cells with 2 μM dihydroethidine (DHE; Molecular Probes) and flow cytometry analysis.
In series [3] the test system is dCK phosphorylated at Ser-74 in CLL cells. Put plainly: Western blot of dCK phosphorylation at Ser-74. The format is cell-based, human. For orientation: Immunoblotting shows a protein as a band on a membrane.
For another series, the system named is ROS in CLL primary cells. Kind of series: Reactive oxygen species production (dihydroethidine staining, flow cytometry). Format: cell-based, human. As to conditions: for effect of pre-incubation on ROS production induced by forodesine: ROS scavenger pre-incubation. (In general: In flow cytometry, cells or beads pass a laser one at a time.)
The next series deals with BIM in CLL cells. Put plainly: BIM protein levels by immunoblotting. The format is cell-based, human. As to conditions: forodesine treatment.
The conditions of series [4]: Gandhi et al. 2005; Korycka et al. 2007; cited from earlier work.
In series [5] the test system is XIAP and survivin in CLL cells. Kind of series: XIAP and survivin levels by immunoblotting. Conditions: forodesine treatment. The format is cell-based, human.
A further series relates to p73 in CLL cells. Kind of series: p73 mRNA (real time RT-PCR) and TAp73 protein levels. The format is cell-based, human. As to conditions: all CLL cases analyzed. The procedure: Cells were lysed for 15 min in RIPA buffer supplemented with protease and phosphatase inhibitors (leupeptine 10 μg/ml, apoprotinine 10 μg/ml, 1 μM PMSF, 1 μM sodium ortovanadate, 1 μM NaF, 2 μM sodium pyrophosphate decahydrate (Sigma)). Total cellular proteins were separated by SDS-PAGE under reducing conditions and transferred to Immobilon-P (Millipore) membranes. […] Equal protein loading was confirmed with β-actin or α-tubulin expression and relative protein quantification was done with Image Gauge Fujifilm software (Fuji). […] The expression levels of p73 and Mcl-1 were determined in an ABI Prism 7900HT Sequence Detection System (Applied Biosystems, Foster City, Calif.) using pre-designed Assay-on-demand (Applied Biosystems). The relative expression of each gene was quantified by the comparative cycle threshold (Ct) method (ΔΔCt), using GUS as an endogenous control. mRNA expression levels were given as arbitrary quantitative PCR units, taking as a calibrator the control sample (untreated) of each case.
(Quantitative PCR measures a nucleic acid by following its amplification.)

The subject of series [6] is FOXO1 and FOXO3a in CLL cells. Kind of series: FOXO1 and FOXO3a levels by immunoblotting. As to conditions: CLL cells treated with forodesine. The format is cell-based, human.
For series [7], the system named is intracellular dGTP in CLL primary cells. Put plainly: Measurement of intracellular dGTP levels (DNA polymerase assay). Conditions: forodesine 2 μM and dGuo 10 μM; 26 CLL patients; 18 hours. Format: cell-based, human. As for the experimental part: 15×10^6 of CLL primary cells were incubated with or without forodesine (2 μM) and dGuo (10 μM) or fludarabine (1 μg/ml) for 18 hours and the nucleotides were extracted with 60% methanol and intracellular dGTP levels were quantified by DNA polymerase assay as modified by Sherman and Fyfe (Sherman et al., Anal Biochem, 180(2), 222-226 (1989)). Data were expressed in fold induction of intracellular dGTP levels respect of control cells. In parallel, cell viability at 24 and 48 hours were also evaluated.

The test system of a further series is p53 in CLL cells. Put plainly: p53 protein stabilization by immunoblotting. As to conditions: CLL cases with no 17p deletion. Format: cell-based, human.
The next series has as its system BCL-2 in CLL cells. Put plainly: BCL-2 protein levels by immunoblotting. The format is cell-based, human. As to conditions: forodesine treatment.
The test system of series [8] is caspase-9, -8 and -3 in CLL cells. Kind of series: Caspase activation by immunoblotting. Format: cell-based, human. As to conditions: as early as 10 hours of forodesine treatment.
In a further series the test system is BID in CLL cells. Kind of series: BID processing by immunoblotting. Conditions: forodesine treatment. The format is cell-based, human.
The next series has as its system BAX and BAK in CLL cells. Kind of series: BAX and BAK activation by flow cytometry (conformational change). The format is cell-based, human. As to conditions: incubation of CLL cells with forodesine.
In the next series the test system is MCL-1 in CLL cells. Put plainly: MCL-1 protein levels by immunoblotting. Format: cell-based, human. Conditions: forodesine treatment.
The mark [9] stands for this setting: caspase-8 inhibitor pre-incubation.

Where two headings read alike, the source gives them in different places. Peptide text beside a SMILES is read from it. * marks the point of attachment. Cbz = O=C(OCc1ccccc1)*; CH2F = FC*

Method for ROS in CLL primary cells: as §1

With `COC(=O)C[C@H](NC(=O)[C@H](C)NC(=O)[C@@H](NC(=O)OCc1ccccc1)C(C)C)C(=O)CF` [z-VAD.fmk, benzyloxy-carbonyl-Val-Ala-Asp-fluoro-methylketone] (Cbz-Val-Ala-Asp(OMe)-CH2F), the “effect on phosphatidylserine exposure after forodesine treatment” value in series [1] (broad range caspase inhibitor pre-incubation, forodesine 24 hours) is “partially reduced phospatidylserine exposure”.

For the compound `CC[C@H](C)[C@H](NC(=O)OCc1ccccc1)C(=O)N[C@@H](CCC(=O)OC)C(=O)N[C@H](C(=O)N[C@@H](CC(=O)OC)C(=O)CF)[C@@H](C)O` (racemic) [z-IETD.fmk, Z-Ile-Glu(OMe)Thr-DL-Asp (OMe)-fluoromethylketone], the “effect on forodesine apoptosis induction (Annexin V staining)” value in [1] (setting [9]) is “partially blocked”. Moreover, in series [2] (setting [9]), the “reversion of ΔΨm loss induced by forodesine” value is “more pronounced”.

For the compound `Cl.Cn1c(CCCC(=O)O)nc2cc(N(CCCl)CCCl)ccc21` [Bendamustine], the “phosphorylated form (at Ser-74) of dCK” value in series [3] was “not exerted”.

As to `Nc1ccn([C@H]2C[C@H](O)[C@@H](CO)O2)c(=O)n1` [deoxycytidine, 2′-deoxycytidine], in series [1] (deoxycytidine 5-10 μM), the “effect of pre-incubation on forodesine-induced cell death” value is listed as “inhibited forodesine-induced cell death”. For the same compound, in series [1] (deoxycytidine pre-incubation), the “effect on cell death induced by bendamustine” value is given as “not reverted” and the “effect on loss of cell viability induced by fludarabine” value is “reverted the loss of cell viability”.

In the case of `CC(=O)N[C@@H](CS)C(=O)O` [NAC, N-acetyl-L-cysteine], the “effect of pre-incubation on ROS production induced by forodesine” value with ROS in CLL primary cells is listed as “practically reverted ROS production”. Moreover, the “effect of pre-incubation on Δψm loss induced by forodesine” value in series [2] is given as “reduced Δψm loss”.

`CCOC(=O)CNC(=O)[C@H](CS)NC(=O)CC[C@H](N)C(=O)O` [GSH, glutathione-reduced ethyl ester]: the “effect of pre-incubation on ROS production induced by forodesine” value in the series with ROS in CLL primary cells is recorded as “moderated”. Moreover, the “effect of pre-incubation on Δψm loss induced by forodesine” value in [2] was “reduced Δψm loss”.

For the compound `Nc1nc2c(ncn2[C@H]2C[C@H](O)[C@@H](CO)O2)c(=O)[nH]1` [dGuo, deoxyguanosine], the “cytotoxic effect of agent alone” value in series [1] is listed as “did not induce a cytotoxic effect”.

Consider `Nc1nc(F)nc2c1ncn2[C@@H]1O[C@H](CO)[C@@H](O)[C@@H]1O` [Fludarabine], for which, in series [1], the mean cytotoxicity came to 25.1±13% and the “mean cytotoxicity as single agents” value is listed as 50.6±11%.

For Rituximab, the cell death result in series [1] (single agent or combined with forodesine, 24 hours) is on record as “low”.

For the compound `Cl.O=c1[nH]cnc2c([C@@H]3N[C@H](CO)[C@@H](O)[C@H]3O)c[nH]c12` [Forodesine], in [1], the “cytotoxic effect of agent alone” value is recorded as “did not induce a cytotoxic effect” and the “share of cases with cytotoxic effect between 40-60%” value is given as 41.8%. Moreover, the “response of p53 deleted CLL cases” value in series [1] (11 CLL patients with 17p deletions, Forodesine 2 μM+dGuo 20 μM, 48 hours) was “high response”. In addition, the “response in samples with no or low in vitro response to bendamustine 25 μM and/or fludarabine 1 μg/ml” value in series [1] (12 of 32 CLL patient samples) is listed as “high response”. The mean cytoxicity in series [1] (CLL cells with high levels of ZAP-70, 22 CLL patients) is 57.9%±12. The “mean cytoxicity with respect to control” value in series [1] (CLL cells with low levels of ZAP-70, 17 CLL patients) is 58.1%±11. Also, in series [1] (Forodesine 2 μM and dGuo 10-20 μM), the “response of CLL cells with low or no sensitivity to Bendamustine or Fludarabine” value is “good response”. The “cell death (Annexin-V+ staining)” value in series [1] (forodesine 2-5-10 μM with dGuo 10-20 or 30 μM, 48 hours) is “induced cell death”. Further, the “response in CLL cells with 13q deletion, 11q deletion and 17p deletion” value in series [1] (forodesine-induced cytotoxicity) was “good response”. Further, in [1] (n=10, 48 hours), the “cell death, CLL fresh samples” value was 56.6%±6.4. Further, in series [1] (n=32, 48 hours), the “cell death, cryopreserved primary CLL samples” value is reported as 58.3%±11. For the same compound, the ROS production result with ROS in CLL primary cells (CLL primary cells, evident after 10 hours) is reported as “induced the production of ROS”. In addition, the BIM protein levels entry in the series on BIM in CLL cells was “induced an increase”. Also, in [4], the toxicity profile entry is reported as “low toxicity profile”. Besides, in series [5], the “XIAP and survivin levels” value is “decrease of the inhibitors of apoptosis XIAP and survivin”. For the same compound, in the series with p73 in CLL cells, the “p73 mRNA and TAp73 protein levels” value is “clear up-regulation”. Further, in series [6], the “FOXO1 and FOXO3a levels” value is “induced an increase in both, FOXO1 and FOXO3a”. Further, the “increase in intracellular dGTP levels with respect to control basal levels” value in [7] is “up to 96 times fold increase”. The p53 protein result with p53 in CLL cells is given as “induce stabilization of p53 protein”. Moreover, the “phosphorylated form (at Ser-74) of dCK” value in series [3] (western blot in CLL cells) was “increase in the phosphorylated form”. In addition, the “mitochondrial transmembrane potential (Δψm)” value in series [2] (early times, evident after 10 hours) is reported as “induced loss of mitochondrial transmembrane potential”. Besides, the BCL-2 protein levels result in the series with BCL-2 in CLL cells is listed as “not affected”. In addition, in series [8], the “activation of caspase-9, -8 and -3 (processing of pro-inactive form)” value was “dose- and time-dependent activation”. Besides, the BID protein entry in the series with BID in CLL cells is given as “induced a decreased of BH3-only protein BID”. In the series on BAX and BAK in CLL cells, the “activation of BAX and BAK” value was “induced the conformational change of BAX and BAK”. Also, the MCL-1 protein levels result with MCL-1 in CLL cells is on record as “considerably decreased”.

On to `O=S(=O)(O)c1cc(O)c(O)c(S(=O)(=O)O)c1` [Tiron, 4,5-Dihydroxy-1,3-Benzene-disulfonic acid], for which the “effect of pre-incubation on ROS production induced by forodesine” value in the series on ROS in CLL primary cells was “practically reverted ROS production”. Further, the “effect of pre-incubation on Δψm loss induced by forodesine” value in series [2] is “reduced Δψm loss”.
